Among the data in a melting point compilation (Tetko et al.; mined from patent text by program, amines drawn as free bases though some values may be those of a salt) are melting point values, retold here.

Each structure is given as a SMILES string.

As to `CC(=O)Oc1ccc(Nc2nc(N)ncc2Oc2ccc(Cl)cc2)cc1`, the melting point lay in the range of 132 to 133 °C.
Compound `NC(=O)C1CCCc2c1c1cc(OCCCP(=O)(O)O)ccc1n2Cc1ccccc1` (stereo unspecified) yielded a melting point of 200 to 201 °C.
Compound `CC(C)CC1(C)NCCNC1=O` (stereo unspecified) yielded a melting point of 79 to 82 °C.
Next, `CN(C)C1CCC(Nc2ncc3ncnc(Nc4ccc(F)c(Cl)c4)c3n2)CC1` (stereo unspecified): 178 to 180 °C; `CC(=O)n1c(=O)n(CCCN2CCN(C(c3ccccc3)c3ccccc3)CC2)c2ccccc21`: 124 °C.
Take `Cc1ccc(S(=O)(=O)Oc2ccc(S(=O)(=O)CC(=O)C(C)C)cc2)cc1`: the melting point lay within 156 to 157 °C.
`CC(C)Oc1c(C(=O)Nc2nnn[nH]2)sc2c1CCCC2` registered a melting point of 223 to 225 °C.
Consider `O=C(O)c1ccccc1Nc1ccnn1Cc1ccccc1`, for which the melting point came to 190 °C.
In the case of `O=C(O)c1cccc2cc(Sc3cc(Cl)ncn3)ccc12` it was 209 °C.
In the case of `CC(C)c1[nH]n(-c2c(Cl)cc(Cl)cc2Cl)c2nc(Cc3ccc(NC(=O)N4CCN(C)CC4)cc3)nc(=O)c1-2` it was 251 to 253 °C; in that of `Cn1ncc2c1-c1c(Sc3ccccn3)sc(C(N)=O)c1CC2`, 234 to 236 °C.
For the compound `CS(=O)(=O)N1CC=C(c2ccc3cnc(Nc4ccc(N5CCOCC5)cc4)nn23)CC1`, the melting point was 238 to 240 °C.
Next, `CS(=O)(=O)Nc1ccccc1OC1CCCCC1`: 113 to 115 °C; `Cc1cc(-c2oncc2CO)ccc1Cl`: 92 to 93 °C.
Next, `CCCn1cc2c(C3C(=O)Nc4ccc(S(=O)(=O)N(C)C)cc43)nc(NCCN(C)C)nc2n1` (stereo unspecified): 259 to 263 °C; `O=C1[C@H]2CCC[C@H]2Nc2ccccc2N1Cc1ccc2ccccc2c1` (relative stereo): 148 °C; `C=C(C)C(=O)Oc1ccc2c(c1)C(=O)c1ccccc1C2=O`: 184 to 186 °C.
For `CC(=O)n1c(Br)cc(-c2ccc(F)cc2)c1-c1ccc(S(C)(=O)=O)cc1`, the melting point lay in the range of 121 to 125 °C.
`COc1cc2c(cc1OC)N(C(=O)c1ccc(-c3ccccc3C(F)(F)F)c(C)c1)Cc1ccc(C(=O)N(C)CC(O)CO)n1C2` (stereo unspecified) registered a melting point of 184 to 186 °C.
`Cc1nn(C)c2c1c1oc(=O)c(Br)c(O)c1c(=O)n2Cc1ccc(F)cc1` showed a melting point of 262 to 264 °C.
In the case of `N#CC(C(=O)c1ccc([N+](=O)[O-])cc1)=C1CCCCN1`, the melting point came to 182 °C.
`FCc1nnc2n1-c1ccc(Cl)cc1C(c1ccccc1)=NC2` gave a melting point of 153 to 154 °C.
Next, `CCCC1=C([N+](=O)[O-])C(c2ccccc2Cl)c2c[nH]nc2N1` (stereo unspecified): 228 °C; `O=C(Nc1cc(S(=O)(=O)N(CCO)CCO)sc1Cl)c1cnn2c(C(F)F)cc(-c3ccc(C(F)(F)F)cc3)nc12`: 216 °C; `Nc1cc(OCc2cccc(Cl)c2)c(C(=O)NC2CN3CCC2CC3)cc1Cl` (stereo unspecified): 168 to 169 °C.
`Cc1nc(NCCc2ccccc2)sc1-c1ccnc(Nc2ccc(N3CCOCC3)cc2)n1` came in with a melting point of 226 to 228 °C.
Next, `Cc1nc(NC(=O)c2cnn3c(C(F)F)cc(-c4ccc(C(F)(F)F)cc4)nc23)sc1S(N)(=O)=O`: 284 °C; `CCOC(=O)Cc1ccc(NC(=O)C(COc2ccccc2Cl)NS(=O)(=O)c2ccc(I)cc2)cc1` (racemic): 140 to 142 °C; `CCCCN(CCCC)c1ccc(C=CC=CC=CC2=C(C#N)C(=C(C#N)C#N)OC2(C)C(F)(F)F)c(OC)c1` (stereo unspecified): 168 to 172 °C.
As to `Cc1c(C(=O)O)nnn1Cc1ccccc1Cl`, the melting point fell in the range of 186 to 187 °C.
In the case of `CCOC(=O)C1=C(C#N)Nc2nccn2C1c1cccc([N+](=O)[O-])c1` (stereo unspecified) it was 260 to 261 °C.
In the case of `CC(C)(C)c1ccc(C(=O)Nc2cc[nH]c(=O)n2)cc1` it was greater than 260 °C; in that of `COCCOc1ccc2c(c1)OCC21C(=O)N(Cc2ccccn2)c2ccccc21` (stereo unspecified), 94 to 95 °C; in that of `Cc1c(Br)csc1C#N`, 54 to 58 °C.
Turning to `CCCSc1nc(N)nc2c1ncn2C1C=CC(CO)C1` (stereo unspecified), the melting point lay within 128 to 130 °C.
For the compound `O=C(c1ccc2c(=O)n(CCCCN3CC=C(c4ccccc4)CC3)c(=O)[nH]c2c1)N1CCOCC1`, the melting point was 206 to 210 °C.
In the case of `NC(P(=O)(O)O)P(=O)(O)O` it was 255 to 265 °C; in that of `O=Cc1c(F)cccc1N1CCN(Cc2ccccc2)CC1`, 94 to 95 °C; in that of `O=C(O)c1nc(C2CC2)nc(Cl)c1Cl`, 126 to 127 °C.
`CC(C)(NCCCn1ccnc1)c1ccc(-c2ccc(OCc3ccccc3)cc2)cc1` showed a melting point of 93 to 95 °C.
For the compound `O=C1c2ccccc2C(O)N1CCCOc1ccncc1` (stereo unspecified), the melting point was 124 to 125 °C.
The compound `CCCc1nn(-c2ccc(C(F)(F)F)cn2)cc1CCCOc1ccc(CC(=O)O)c(C)c1` gave a melting point of 134 to 135 °C.
In the case of `NS(=O)(=O)c1ccccc1C1=CCCC1` it was 112 to 113 °C; in that of `N#CC(=NO)c1cccs1`, 103 to 104 °C.
In the case of `NC(=O)c1c(F)ccc(OCc2ccc3sccc3c2)c1F`, the melting point was 146 to 148 °C.
Next, `CCC(=O)OCc1ccc2oc(=O)c(C(=O)Oc3cncc(Cl)c3)cc2c1`: 156 to 158 °C; `CSc1ccc(C)cc1[N+](=O)[O-]`: 71 to 73 °C; `CC(C)n1cc(C2CCC3(CC2)OCCO3)c2cc(C#N)ccc21`: 114 to 116 °C.
Take `CCOC(=O)/C=C/c1cc(OCOC)nn1Cc1ccc(Cl)cc1Cl`: the melting point lay within 98 to 99 °C.
`CCCc1nc2c(N)nc3cc(-c4cccc(C(=O)NC5CC5)c4)ccc3c2s1` displayed a melting point of 251 to 254 °C.
In the case of `CC(C)(C)OC(=O)NC1CCN(C(=O)C2CCN(C(=O)OCc3ccccc3)CC2)CC1` it was 150 to 152 °C; in that of `CCCc1nn(C)c2c(=S)[nH]c(-c3ccccc3OCC)nc12`, 156 to 158 °C.
Next, `COCc1cnc2c(NC(=O)c3c(Cl)cccc3Cl)cccc2c1Cl`: 177 °C; `CCCc1nc(C#N)c(C#N)nc1Oc1ccccc1`: 130 to 132 °C; `COc1ccc(NC(NC(c2ccc(CC(C)(C)C)s2)C2CCCCC2)=C2C(=O)OC(C)(C)OC2=O)c(OC)c1` (stereo unspecified): 143 to 145 °C.
Next, `CCc1cc2c(Sc3ccccn3)ncnc2s1`: 76.5 to 79 °C; `COC(=O)CCc1ccc(OCCn2c(=O)sc3cc(C(=O)c4ccccc4)ccc32)cc1`: 74 to 77 °C.
Turning to `CC(=O)SCC(Cc1ccccc1)C(=O)Nc1cc(C(=O)O)ccc1C` (stereo unspecified), the melting point lay in the range of 214 to 216 °C.
Next, `CCOC(=O)c1cnc2[nH]c(-c3cc(OCc4ccccc4)ccc3OC(C)C)nc2c1`: 138 to 140 °C; `CCC(C)Nc1cc(-c2ccc(Cl)cc2)nc2nn(C)cc12` (stereo unspecified): 208 to 209 °C.
Next, `COc1cc(N2CCC(N3CCCN(C)CC3)CC2)ccc1Nc1ncc2ccc(-c3ccccc3N(C)S(C)(=O)=O)n2n1`: 100 to 109 °C.
In turn, `COc1cc(COC(=O)NCCN2CCOCC2)ccc1OC(C)=O` registered a melting point of 82 to 83 °C.
Next, `Cc1c(-c2ccc(C3=CCN(C(=O)OC(C)(C)C)CC3)cc2)nc2n1CCc1ccccc1C2OC1CCN(C)CC1` (stereo unspecified): 171 °C; `CCOc1cc2cc3c(Nc4cc(OC)c(Cl)cc4C)c(C#N)cnc3cc2cc1OCCCl`: 129 to 130 °C; `Cc1c(SCCCSc2ccc3ncc([N+](=O)[O-])n3n2)ccnc1C(S)c1nc2cc(S(C)(=O)=O)ccc2[nH]1` (stereo unspecified): 155 to 156 °C.
Turning to `COC(=O)C(C)Oc1cc(C)ccc1COc1ccc([N+](=O)[O-])c(F)c1` (stereo unspecified), the melting point fell in the range of 92 to 94 °C.
In the case of `CCOC(=O)CCCOc1ccc2c(c1)C[C@@H](NC(=O)OC(C)(C)C)CC2` it was 96 to 98 °C.
In the case of `O=C1CNC2=C(CCc3cc(F)ccc32)C1` it was 223 to 224 °C.
Next, `Oc1ccc2c(c1)Oc1cc(O)ccc1C2(C(F)(F)F)C(F)(F)F`: 209 to 210 °C; `ClCc1nccn1Cc1ccccc1`: 180 to 182 °C; `CCC(Oc1ccccc1)c1nnc(N2C(=O)N(C)CC2O)s1` (stereo unspecified): 137 to 138 °C.
The compound `CCc1c(-c2ccc(OCc3ccccc3)cc2)c2c(COCCCCCCCN3CCCCC3)cc3c(OCc4ccccc4)ccc1n32` showed a melting point of 86 to 90 °C.
Turning to `COc1nc2cc(Cl)c(Cl)cc2nc1OC`, the melting point is 144 to 146 °C.
For the compound `CS(=O)(=O)c1ccc(-c2ccccc2C=C2CCCCC2)cc1`, the melting point is 83 °C.
In the case of `CCCCCCCC[C@H](C(=S)Nc1c(SC)ccc2ncccc12)c1ccccc1` it was 126 to 128 °C; in that of `O=C(O)CCOCC(I)=C(I)I`, 115 to 117 °C; in that of `N#CC(C#N)=C(NCCN1CCCCC1)N1CCC(CN2CCCCC2)CC1`, 78 to 80 °C.
Next, `Cc1nsc(Br)c1S(N)(=O)=O`: 148 to 150 °C.
In the case of `CN(C)CCNC(=O)c1c2ccccc2nc2c1[nH]c1ccccc12` it was 175 to 176 °C.
Compound `Cc1ccccc1C(=O)Nc1nc(C(Cl)(Cl)Cl)ns1` returned a melting point of 170 °C.
`CCCNC(=O)Nc1ccc(N2CCOCC2)cc1C(=O)NCC1CCN(C(c2ccccc2)c2ccccc2)CC1` gave a melting point of 215 to 217 °C.
As to `CC1Cc2ccccc2P1c1ccccc1P(c1ccccc1)c1ccccc1` (single isomer, unassigned; (+)), the melting point lay in the range of 40 to 42 °C.
Next, `O=C(O)/C=C/c1ccc(Oc2c(-c3ccccc3)c(C3CC3)cc3cc(O)ccc23)cc1`: 242 to 243 °C; `COc1ccc2cc3c(Cl)n[nH]c3nc2c1`: 296 to 297 °C; `O=C(NN1CCN(C(=O)Cl)C1=O)OCc1ccccc1`: 102 to 105 °C.
In the case of `O=C1NC(=O)C(c2ccc(F)cc2)(c2ccc(F)cc2)C(=O)N1` it was 315 to 318 °C.

A word on the melting point: it is the temperature, or range, at which the solid turns liquid.
